{"source": "patent US20110059985A1", "about": "“NOVEL FORMULATION” (priority 2007, published 2011)", "key": {"[1]": {"settings": "not measured, data according to Neues Rezeptur-Formularium, cited from earlier work"}, "[2]": {"assay": "Fungicidal concentrations of abafungin (stated in Example 4)", "assay_type": "cell-based"}, "[3]": {"assay": "Abafungin solubility in excipients (Example 1)", "assay_type": "physicochemical", "experimental": "To order to study the solubility of abafungin, abafungin was dissolved in a number of excipients."}}, "note": "Like-named read-outs stand apart in the source and are kept apart here. Marks after values point to notes of the source that are not given here."}
{"compound": "Cc1cc(C2CCCCC2)n(O)c(=O)c1", "note": "[Ciclopirox Olamine]", "values": [{"measurement": "maximum solubility", "setting": "[1]; Ethanol gel (NRF 11.84)", "value": "~soluble*^5"}, {"measurement": "maximum solubility", "setting": "[1]; Pure ethanol", "value": "~soluble*^5"}, {"measurement": "maximum solubility", "setting": "[1]; Pure water", "value": "~1-3%*^5"}]}
{"compound": "Cc1ccc(Oc2ccccc2-c2csc(N=C3NCCCN3)n2)c(C)c1", "note": "[abafungin]", "values": [{"measurement": "fungicidal concentrations", "setting": "[2]", "value": "16 to 30", "unit": "µg/mL"}, {"measurement": "Not soluble", "setting": "[3]; excipient: MPEG 550", "value": "✓"}, {"measurement": "Not soluble", "setting": "[3]; excipient: MPEG 2000", "value": "✓"}, {"measurement": "Not soluble", "setting": "[3]; excipient: PEG 400", "value": "✓"}, {"measurement": "Not soluble", "setting": "[3]; excipient: PEG 1500", "value": "✓"}, {"measurement": "Not soluble", "setting": "[3]; excipient: PEG 4500", "value": "✓"}, {"measurement": "Not soluble", "setting": "[3]; excipient: PEG 6000", "value": "✓"}, {"measurement": "Not soluble", "setting": "[3]; excipient: PEG 12000", "value": "✓"}, {"measurement": "Not soluble", "setting": "[3]; excipient: PEG 20000", "value": "✓"}, {"measurement": "Not soluble", "setting": "[3]; excipient: cetearyl ethylhexanoate (cosmetic oils)", "value": "✓"}, {"measurement": "Not soluble", "setting": "[3]; excipient: decyl oleate (cosmetic oils)", "value": "✓"}, {"measurement": "Not soluble", "setting": "[3]; excipient: ethanol", "value": "✓"}, {"measurement": "Not soluble", "setting": "[3]; excipient: ethanol 70%", "value": "✓"}, {"measurement": "Not soluble", "setting": "[3]; excipient: glycerine", "value": "✓"}, {"measurement": "Not soluble", "setting": "[3]; excipient: isopropanol", "value": "✓"}, {"measurement": "Not soluble", "setting": "[3]; excipient: isopropyl myristate (cosmetic oils)", "value": "✓"}, {"measurement": "Not soluble", "setting": "[3]; excipient: isopropyl palmitate (cosmetic oils)", "value": "✓"}, {"measurement": "Not soluble", "setting": "[3]; excipient: medium chain triglyceride (cosmetic oils)", "value": "✓"}, {"measurement": "Not soluble", "setting": "[3]; excipient: propylene glycol", "value": "✓"}, {"measurement": "Soluble", "setting": "[3]; excipient: transcutol", "value": "✓ (3%)"}, {"measurement": "Not soluble", "setting": "[3]; excipient: water", "value": "✓"}, {"measurement": "solubility", "setting": "[3]; mixture of water, polyethylene glycol, polyethylene glycol monomethyl ether and an acid such as formic acid", "value": "soluble"}]}
